The results in this text go back to patent US9271971B2, “Pyrido[3,4-B]indoles and methods of use” (Medivation Technologies, Inc., priority 2009, dated 2016).

In assay [1] the target is human recombinant serotonin (5-Hydroxytryptamine) 5-HT7 receptor (Homo sapiens, UniProt P34969). As to the kind of experiment: Serotonin 5-HT7 radioligand binding assay. To be noted: [3H]LSD specific binding; for inhibition at 1 µM: read-out: Percent Inhibition of ligand binding, Serotonin (1 μM ligand concentration) 5-HT7. As to the method:
To evaluate in radioligand binding assays the activity of compounds of the invention, human recombinant serotonin (5-Hydroxytryptamine) 5-HT7 receptor expressed in Chinese hamster ovary (CHO) cells [Roth, B. L. et al., J. Pharmacol. Exp. Ther. (1994), 268:1403; Shen, Y. et al., J. Biol. Chem. (1993), 268:18200] in a modified Tris-HCl buffer (50 mM Tris-HCl, pH 7.4, 10 mM MgCl2, 0.5 mM EDTA) was used. Compounds of invention were incubated with 5.5 nM [^3H] Lysergic acid diethylamide (LSD) for 2 h at 25° C. Non-specific binding was estimated in the presence of 10 μM Serotonin (5-HT). Receptor proteins were filtered and washed, the filters were then counted to determine [^3H]LSD specifically bound. Compounds were screened at 1 μM or lower, using 1% DMSO as vehicle. Biochemical assay results are presented as the percent inhibition of specific binding in Table 4.

Assay [2] addresses T1, human recombinant serotonin (5-Hydroxytryptamine) 5-HT2A receptor (Homo sapiens, UniProt P28223).
T1 construct: expressed in transfected cells; host or cells: Chinese hamster ovary (CHO-K1) cells
As to the kind of experiment: Serotonin 5-HT2A radioligand binding assay. As to conditions: [3H]Ketanserin specific binding; for inhibition at 1 µM: read-out: Percent Inhibition of ligand binding, Serotonin (1 μM ligand concentration) 5-HT2A. As to the method:
To evaluate in radioligand binding assays the activity of compounds of the invention, human recombinant serotonin (5-Hydroxytryptamine) 5-HT2A receptor expressed in Chinese hamster ovary (CHO-K1) cells [Bonhaus, D. W. et al., Br. J. Pharmacol. (1995), 115:622; Saucier, C. et al., J. Neurochem. (1997), 68:1998] in a 50 mM Tris-HCl buffer, pH 7.4, was used. Compounds of the invention were incubated with 0.5 nM [^3H]Ketanserin for 60 min. at 25° C. Non-specific binding was estimated in the presence of 1 μM Mianserin. Receptor proteins were filtered and washed, the filters were then counted to determine [^3H]Ketanserin specifically bound. Compounds were screened at 1 μM or lower, using 1% DMSO as vehicle. Biochemical assay results are presented as the percent inhibition of specific binding in Table 4.

T1 sequence (P28223 whole entry): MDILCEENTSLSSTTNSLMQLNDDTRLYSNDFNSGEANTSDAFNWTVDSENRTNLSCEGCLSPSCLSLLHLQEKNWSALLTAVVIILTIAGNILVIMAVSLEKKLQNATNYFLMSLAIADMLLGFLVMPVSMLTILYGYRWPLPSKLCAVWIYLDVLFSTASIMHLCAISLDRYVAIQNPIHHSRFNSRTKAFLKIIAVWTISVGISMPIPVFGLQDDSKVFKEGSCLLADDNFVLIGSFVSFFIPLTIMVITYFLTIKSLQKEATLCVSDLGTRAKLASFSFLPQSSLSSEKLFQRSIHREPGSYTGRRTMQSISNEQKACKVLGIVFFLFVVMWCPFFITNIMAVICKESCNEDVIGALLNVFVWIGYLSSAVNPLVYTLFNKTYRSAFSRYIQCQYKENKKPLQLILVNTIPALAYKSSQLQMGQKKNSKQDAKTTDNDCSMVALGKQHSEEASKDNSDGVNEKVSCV
Sequence of human recombinant serotonin (5-Hydroxytryptamine) 5-HT7 receptor (P34969 whole entry): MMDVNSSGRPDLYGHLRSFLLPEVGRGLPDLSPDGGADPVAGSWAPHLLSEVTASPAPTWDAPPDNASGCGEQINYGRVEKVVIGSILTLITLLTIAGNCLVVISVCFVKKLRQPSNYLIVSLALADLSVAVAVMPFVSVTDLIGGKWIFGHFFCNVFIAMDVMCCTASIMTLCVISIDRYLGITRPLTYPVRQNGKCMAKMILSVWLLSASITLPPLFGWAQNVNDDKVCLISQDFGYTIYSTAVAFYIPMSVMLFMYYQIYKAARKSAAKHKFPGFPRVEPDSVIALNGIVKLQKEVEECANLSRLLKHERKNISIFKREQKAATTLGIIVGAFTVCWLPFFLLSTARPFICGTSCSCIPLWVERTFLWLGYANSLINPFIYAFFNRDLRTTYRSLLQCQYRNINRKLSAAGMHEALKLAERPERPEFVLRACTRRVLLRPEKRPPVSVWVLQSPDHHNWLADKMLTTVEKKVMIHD

With `Cc1ccc2c(c1)c1c(n2CCc2ccncc2)CN2CCC1C2` (stereo not drawn) [Compound 30], the values for the inhibition at 1 µM in assay [1] and in assay [2] were 95% and 71%, respectively.

For `C/C(=C\n1c2c(c3cc(C)ccc31)C1CCN(C2)C1)c1ccc(Cl)cc1Cl` (stereo not drawn) [Compound 34], the “Percent Inhibition of ligand binding, Serotonin (1 μM ligand concentration) 5-HT7” value in assay [1] is 86%. Besides, the “Percent Inhibition of ligand binding, Serotonin (1 μM ligand concentration) 5-HT2A” value in assay [2] worked out at 94%.

Consider `Cc1ccc2c(c1)c1c(n2CCc2ccccn2)CN2CCC1C2` (stereo not drawn) [Compound 11], for which the inhibition at 1 µM in assay [2] was 10%.

As to `COc1ccc(/C(C)=C/n2c3c(c4cc(C)ccc42)C2CCN(C3)C2)cc1F` (stereo not drawn) [Compound 41], the inhibition at 1 µM was 90% in assay [1] and 92% in assay [2].

For `Cc1ccc2c(c1)c1c(n2C(=O)Cc2ccc(F)cc2)CN2CCC1C2` (stereo not drawn) [Compound 43], the inhibition at 1 µM in assay [1] was 41%; in assay [2] it was 48%.

Turning to `Cc1ccc2c(c1)c1c(n2C#Cc2ccc(Cl)cc2)CN2CCC1C2` (stereo not drawn) [Compound 35], the results for the inhibition at 1 µM in assay [1] and in assay [2] were 35% and 87%, respectively.

As for `Cc1ccc2c(c1)c1c(n2CC(=O)N2CCC(C)CC2)CN2CCC1C2` (stereo not drawn) [Compound 25], the inhibition at 1 µM in assay [2] was 2%.

`C/C(=C\n1c2c(c3cc(C)ccc31)C1CCN(C2)C1)c1ccc(F)c(F)c1` (stereo not drawn) [Compound 39]: the inhibition at 1 µM came to 96% in assay [1] and 94% in assay [2].

Regarding `C/C(=C\n1c2c(c3cc(C)ccc31)C1CCN(C2)C1)c1ccc(F)cc1` (stereo not drawn) [Compound 22], the inhibition at 1 µM in assay [2] amounted to 97%.

In the case of `Cc1ccc2c(c1)c1c(n2CC(=O)NC2CCCCC2)CN2CCC1C2` (stereo not drawn) [Compound 23], the inhibition at 1 µM in assay [2] was -4%.

`Cc1ccc(C(O)Cn2c3c(c4cc(C)ccc42)C2CCN(C3)C2)cc1` (stereo not drawn) [Compound 5]: in assay [2], the inhibition at 1 µM stood at 81%.

`Cc1ccc2c(c1)c1c(n2CC(C)(O)c2ccc(Cl)cc2Cl)CN2CCC1C2` (stereo not drawn) [Compound 14]: the inhibition at 1 µM in assay [2] came out at 61%.

Regarding `COc1ccc(C(O)Cn2c3c(c4cc(C)ccc42)C2CCN(C3)C2)cc1F` (stereo not drawn) [Compound 6], the inhibition at 1 µM in assay [2] amounted to 45%.

As for `Cc1ccc2c(c1)c1c(n2CC(C)(O)c2ccc(F)c(F)c2)CN2CCC1C2` (stereo not drawn) [Compound 15], the inhibition at 1 µM in assay [2] came to 82%.

For the compound `Cc1ccc(C(C)(O)Cn2c3c(c4cc(C)ccc42)C2CCN(C3)C2)cc1` (stereo not drawn) [Compound 20], the inhibition at 1 µM in assay [2] worked out at 102%.

Consider `Cc1ccc2c(c1)c1c(n2CCc2nc(-c3ccccc3)cs2)CN2CCC1C2` (stereo not drawn) [Compound 19], for which, in assay [2], the inhibition at 1 µM is 0%.

For `Cc1ccc2c(c1)c1c(n2CC(C)(O)c2ccc(F)cc2F)CN2CCC1C2` (stereo not drawn) [Compound 17], in assay [2], the inhibition at 1 µM was found to be 81%.

`Cc1ccc2c(c1)c1c(n2CC(=O)N2CCNCC2)CN2CCC1C2` (stereo not drawn) [Compound 24]: the inhibition at 1 µM in assay [2] was determined as 3%.

With `C/C(=C\n1c2c(c3cc(C)ccc31)C1CCN(C2)C1)c1cccnc1` (stereo not drawn) [Compound 42], the results for the inhibition at 1 µM in assay [1] and in assay [2] were 92% and 47%, respectively.

`Cc1ccc2c(c1)c1c(n2CCc2ccc(C)nc2)CN2CCC1C2` (stereo not drawn) [Compound 12]: the inhibition at 1 µM in assay [2] is 17%.

Consider `Cc1ccc2c(c1)c1c(n2CC(=O)N(C)C)CN2CCC1C2` (stereo not drawn) [Compound 27], for which, in assay [2], the inhibition at 1 µM was -4%.

With `Cc1ccc(/C=C/n2c3c(c4cc(C)ccc42)C2CCN(C3)C2)cc1` (stereo not drawn) [Compound 10], the inhibition at 1 µM in assay [2] amounted to 20%.

Take `Cc1ccc2c(c1)c1c(n2CC(O)c2ccccc2)CN2CCC1C2` (stereo not drawn) [Compound 4]: the inhibition at 1 µM in assay [2] is 49%.

As to `C=C(Cn1c2c(c3cc(C)ccc31)C1CCN(C2)C1)c1ccc(F)cc1` (stereo not drawn) [Compound 3], the inhibition at 1 µM in assay [2] turned out to be 94%.

With `C/C(=C/n1c2c(c3cc(C)ccc31)C1CCN(C2)C1)c1ccccc1F` (stereo not drawn) [Compound 37], the inhibition at 1 µM in assay [1] is 93%; in assay [2], 96%.

Take `Cc1ccc2c(c1)c1c(n2CC(O)c2ccc(F)cc2)CN2CCC1C2` (stereo not drawn) [Compound 31]: the values for the inhibition at 1 µM in assay [1] and in assay [2] were 73% and 58%, respectively.

In the case of `Cc1ccc2c(c1)c1c(n2CC(C)(O)c2ccc(F)c(Cl)c2)CN2CCC1C2` (stereo not drawn) [Compound 18], the inhibition at 1 µM in assay [2] is 81%.

As to `Cc1ccc2c(c1)c1c(n2CC(=O)c2ccc(F)cc2)CN2CCC1C2` (stereo not drawn) [Compound 28], the inhibition at 1 µM amounted to 82% in assay [1] and 61% in assay [2].

Consider `Cc1ccc2c(c1)c1c(n2CC(=O)c2ccccc2)CN2CCC1C2` (stereo not drawn) [Compound 21], for which the inhibition at 1 µM in assay [2] was 16%.

`Cc1ccc2c(c1)c1c(n2CC(C)(O)c2ccc(F)cc2)CN2CCC1C2` (stereo not drawn) [Compound 2]: the inhibition at 1 µM in assay [2] is 76%.

For the compound `Cc1ccc2c(c1)c1c(n2CC(=O)N2CCOCC2)CN2CCC1C2` (stereo not drawn) [Compound 26], the inhibition at 1 µM in assay [2] worked out at 5%.

With `COc1ccc(C(O)Cn2c3c(c4cc(C)ccc42)C2CCN(C3)C2)cc1OC` (stereo not drawn) [Compound 8], the inhibition at 1 µM in assay [2] was 25%.

Regarding `Cc1ccc2c(c1)c1c(n2CCc2ccc(C(F)(F)F)nc2)CN2CCC1C2` (stereo not drawn) [Compound 1], in assay [2], the inhibition at 1 µM was 18%.

Consider `Cc1ccc2c(c1)c1c(n2CC(=O)c2ccc(Cl)cc2)CN2CCC1C2` (stereo not drawn) [Compound 29], for which the inhibition at 1 µM is 81% in assay [1] and 56% in assay [2].

For the compound `Cc1ccc2c(c1)c1c(n2CC(C)(O)c2ccc(Cl)c(Cl)c2)CN2CCC1C2` (stereo not drawn) [Compound 13], the inhibition at 1 µM in assay [2] turned out to be 82%.

Regarding `C/C(=C\n1c2c(c3cc(C)ccc31)C1CCN(C2)C1)c1ccc(Cl)c(Cl)c1` (stereo not drawn) [Compound 40], the inhibition at 1 µM turned out to be 95% in assay [1] and 94% in assay [2].

Regarding `Cc1ccc2c(c1)c1c(n2CC(=O)N2CCCCC2)CN2CCC1C2` (stereo not drawn) [Compound 7], the inhibition at 1 µM in assay [2] is -3%.

For the compound `Cc1ccc2c(c1)c1c(n2CC(C)(O)c2ccc(Cl)cc2)CN2CCC1C2` (stereo not drawn) [Compound 16], the inhibition at 1 µM in assay [2] is 92%.

For `Cc1ccc2c(c1)c1c(n2CCc2cncc(F)c2)CN2CCC1C2` (stereo not drawn) [Compound 9], in assay [2], the inhibition at 1 µM was -6%.
